Source: patent US10640430B2, “Fertilizer capsule comprising one or more cores and method of making same” (SAUDI BASIC INDUSTRIES CORPORATION, priority 2014, dated 2020)
Entries after “also recorded” stand apart in the source; their conditions may differ.

Columns and labels:
[1] = Stability of inhibitors in extrudates in urea melt (HPLC, LCMS); format: physicochemical; details: urea melt conditions
Description: Representative procedure for checking the Inhibitor stability in urea melt: The extrudate (1.0 g) was added to a vial containing urea melt (3.0 g) and it was left at the same temperature for one minute. The Vial was then cooled to room temperature and diluted with 5.0 ml of water (milli-Q water). The water was decanted and the same process was repeated twice, to remove most of the urea. Finally, water (5.0 ml) was added to the extrudate and left for 4 h before submitting the samples for HPLC analysis.
Stability of inhibitors in urea melt: Extrudates containing inhibitors were tested for their stability in urea melt using HPLC and LCMS.
Extrudates containing NBTPT/DCD were dipped in urea melt in order to check the stability of the extrudates. Two types of studies were performed, 1) to check the deformation ability of extrudate in urea melt; and 2) to check the stability of inhibitors. Castor wax extrudates with and without inhibitors sustain the urea melt conditions under 5 seconds but inhibitors (NBTPT and DCD) were stable under these conditions. Bleached wheat flour containing extrudates sustained the urea melt temperature (133-135° C.). High melt waxes are taken in to consideration in order to mitigate the problem of possible deformation of wax extrudates when exposed to urea melt. The extrudates of high melt waxes were exposed to urea melt. […] The stability of NBTPT and DCD under urea melt temperature were analyzed and confirmed by HPLC and LCMS.

[2] = cited from earlier work
[3] = Thermal stability of neat NBTPT and NBTPT within a core at 133-135° C. by HPLC; format: physicochemical; details: exposed to 133-135° C. (urea melt temperature), up to 30 min
Description: The thermal stability of neat NBTPT and NBTPT contained within a core, as disclosed herein, can be determined by HPLC. For example, neat NBTPT or a core containing NBTPT can be exposed to 135° C. (133-135° C. is the typical temperature range of a urea melt) and can continuously be analyzed by HPLC every 5 min. Such data will determine how whether the NBTPT has better thermal stability when contained within a core, as compared to neat NBTPT.
The thermal stability of neat NBTPT and NBTPT within a core was determined by HPLC. The core for this example contained 58.8 wt % PoP, 39.2 wt % bleached wheat flour, and 2.0 wt % NBTPT. Both neat NBTPT and NBTPT within a core were exposed to 133-135° C., which is the typical urea melt temperature. […] The data indicates the core protects fertilizer additive materials, such as an inhibitor, from degradation during manufacturing conditions, including the expose of temperatures associated with a urea melt. The thermal stability of materials, such as an inhibitor is critical for its good performance (inhibition) in the soil. The intended function of a material, such as an inhibitor, can be lost if the material degrades when exposed to high temperatures during the manufacturing process.

[4] = Stability of NBTPT during oven drying of water containing extrudates; format: physicochemical; details: extrudates dried in oven at 120° C. overnight
Description: Optimized formulations from the DACA were successfully extruded in the pilot scale extruder in 300 g scale. 100% bleached wheat flour was also extruded with 10-20% water which was not done in DACA.

[5] = bleached wheat flour extrudate containing the inhibitor
[6] = castor wax extrudate containing the inhibitor

N#CN=C(N)N [DCD, dicyandiamide]
Degradation of inhibitor in HPLC [1, 5]: no degradation | Degradation of inhibitor in HPLC [1, 6]: stable; also recorded: no degradation | Thermal stability in the soil ([2]; hot climatic region, soil): thermal instability

CCCCNP(N)(N)=S [NBTPT, N-(n-butyl) thiophosphoric triamide]
Degradation of inhibitor in HPLC [1, 5]: no degradation | Degradation of inhibitor in HPLC [1, 6]: stable; also recorded: no degradation | Thermal stability (decomposition by HPLC) ([3]; listed as Neat NBTPT): significant degradation | Thermal stability (decomposition by HPLC) ([3]; listed as neat NBTPT): decomposes | Stability of NBTPT on drying [4]: stable | Stability under acidic pH ([2]; acidic pH): unstable
